Reference: US20050282743A1, “Molecular interactions in cells” (Arbor Vita Corporation, priority 2001, published 2005)
Ends that are not written are not given here. Peptide text beside a SMILES is read from it. * marks the point of attachment. Biotin = O=C1N[C@H]2[C@H](CS[C@H]2CCCCC(=O)*)N1

Legend:
Assay in all cases: G' assay (10 uM PL peptide), results of TABLE 7 and TABLE 12
Assay type in all cases: binding
[1] = target: T1, PDZ protein (GST-PDZ fusion) (Homo sapiens, UniProt O75970)
T1 construct: made in house; host or cells: E. coli (DH5alpha, BL21 or JM109)
Outline: (§1)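 Biotinylated PL peptides at 10 uM (vs 20 uM in G^0 assay) bound to GST-PDZ fusions; PDZ protein at 5 ug/ml unless another concentration listed. Bound peptide read as A450 nm, classified 0–5 (0 = A450 0; 5 = A450 >4 repeated).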

[2] = target: T2, PDZ protein (GST-PDZ fusion) (Homo sapiens, UniProt Q12923)
T2 construct: made in house; host or cells: E. coli (DH5alpha, BL21 or JM109)
Outline: as §1

[3] = target: T3, PDZ protein (GST-PDZ fusion) (Homo sapiens, UniProt Q5TCQ9)
T3 construct: made in house; host or cells: E. coli (DH5alpha, BL21 or JM109)
T3 sequence (Q5TCQ9 1-1481): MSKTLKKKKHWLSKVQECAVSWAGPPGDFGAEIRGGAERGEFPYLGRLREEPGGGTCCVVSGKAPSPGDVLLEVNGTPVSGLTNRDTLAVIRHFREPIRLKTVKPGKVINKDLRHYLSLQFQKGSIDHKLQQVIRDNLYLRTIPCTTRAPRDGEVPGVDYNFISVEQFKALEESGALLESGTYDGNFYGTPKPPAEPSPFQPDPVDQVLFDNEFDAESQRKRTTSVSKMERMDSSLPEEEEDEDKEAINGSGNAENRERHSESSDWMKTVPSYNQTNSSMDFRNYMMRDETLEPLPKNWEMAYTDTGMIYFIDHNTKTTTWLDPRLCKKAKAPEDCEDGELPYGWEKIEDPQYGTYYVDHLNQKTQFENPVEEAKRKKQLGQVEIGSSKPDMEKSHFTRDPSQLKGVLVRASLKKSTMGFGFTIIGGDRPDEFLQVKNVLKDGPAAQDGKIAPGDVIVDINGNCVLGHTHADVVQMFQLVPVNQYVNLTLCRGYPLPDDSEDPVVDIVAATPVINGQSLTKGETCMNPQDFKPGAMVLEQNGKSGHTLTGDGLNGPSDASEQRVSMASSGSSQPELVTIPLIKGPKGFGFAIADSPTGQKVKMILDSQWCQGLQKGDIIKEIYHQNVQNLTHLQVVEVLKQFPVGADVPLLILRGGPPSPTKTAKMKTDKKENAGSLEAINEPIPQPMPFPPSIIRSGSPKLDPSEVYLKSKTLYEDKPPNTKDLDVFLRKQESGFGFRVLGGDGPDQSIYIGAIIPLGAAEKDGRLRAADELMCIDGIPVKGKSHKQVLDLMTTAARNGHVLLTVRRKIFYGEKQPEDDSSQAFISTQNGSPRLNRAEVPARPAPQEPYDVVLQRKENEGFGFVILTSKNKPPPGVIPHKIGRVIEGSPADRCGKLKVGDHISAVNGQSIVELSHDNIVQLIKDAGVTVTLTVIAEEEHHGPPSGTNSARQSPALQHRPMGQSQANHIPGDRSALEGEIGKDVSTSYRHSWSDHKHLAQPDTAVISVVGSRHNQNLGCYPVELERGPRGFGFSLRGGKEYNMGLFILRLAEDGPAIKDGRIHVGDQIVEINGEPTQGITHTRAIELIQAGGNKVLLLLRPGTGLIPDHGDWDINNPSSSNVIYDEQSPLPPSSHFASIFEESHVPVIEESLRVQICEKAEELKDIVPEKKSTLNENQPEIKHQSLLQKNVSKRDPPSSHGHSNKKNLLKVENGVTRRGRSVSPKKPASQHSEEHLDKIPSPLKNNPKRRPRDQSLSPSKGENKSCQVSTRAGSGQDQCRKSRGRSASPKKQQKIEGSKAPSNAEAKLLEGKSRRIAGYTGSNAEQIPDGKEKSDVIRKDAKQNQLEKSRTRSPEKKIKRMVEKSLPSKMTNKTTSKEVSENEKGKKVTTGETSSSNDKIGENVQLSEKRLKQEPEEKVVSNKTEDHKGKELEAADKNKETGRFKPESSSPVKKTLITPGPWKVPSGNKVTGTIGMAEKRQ
Outline: as §1

[4] = target: T4, PDZ protein (GST-PDZ fusion) (Homo sapiens, UniProt Q6P0Q8)
T4 construct: made in house; host or cells: E. coli (DH5alpha, BL21 or JM109)
Outline: as §1

[5] = system: PDZ protein (GST-PDZ fusion)
Outline: as §1

[6] = PDZ KIAA807, PDZ Domain not given

T1 sequence (O75970 whole entry, the tested form may be a part): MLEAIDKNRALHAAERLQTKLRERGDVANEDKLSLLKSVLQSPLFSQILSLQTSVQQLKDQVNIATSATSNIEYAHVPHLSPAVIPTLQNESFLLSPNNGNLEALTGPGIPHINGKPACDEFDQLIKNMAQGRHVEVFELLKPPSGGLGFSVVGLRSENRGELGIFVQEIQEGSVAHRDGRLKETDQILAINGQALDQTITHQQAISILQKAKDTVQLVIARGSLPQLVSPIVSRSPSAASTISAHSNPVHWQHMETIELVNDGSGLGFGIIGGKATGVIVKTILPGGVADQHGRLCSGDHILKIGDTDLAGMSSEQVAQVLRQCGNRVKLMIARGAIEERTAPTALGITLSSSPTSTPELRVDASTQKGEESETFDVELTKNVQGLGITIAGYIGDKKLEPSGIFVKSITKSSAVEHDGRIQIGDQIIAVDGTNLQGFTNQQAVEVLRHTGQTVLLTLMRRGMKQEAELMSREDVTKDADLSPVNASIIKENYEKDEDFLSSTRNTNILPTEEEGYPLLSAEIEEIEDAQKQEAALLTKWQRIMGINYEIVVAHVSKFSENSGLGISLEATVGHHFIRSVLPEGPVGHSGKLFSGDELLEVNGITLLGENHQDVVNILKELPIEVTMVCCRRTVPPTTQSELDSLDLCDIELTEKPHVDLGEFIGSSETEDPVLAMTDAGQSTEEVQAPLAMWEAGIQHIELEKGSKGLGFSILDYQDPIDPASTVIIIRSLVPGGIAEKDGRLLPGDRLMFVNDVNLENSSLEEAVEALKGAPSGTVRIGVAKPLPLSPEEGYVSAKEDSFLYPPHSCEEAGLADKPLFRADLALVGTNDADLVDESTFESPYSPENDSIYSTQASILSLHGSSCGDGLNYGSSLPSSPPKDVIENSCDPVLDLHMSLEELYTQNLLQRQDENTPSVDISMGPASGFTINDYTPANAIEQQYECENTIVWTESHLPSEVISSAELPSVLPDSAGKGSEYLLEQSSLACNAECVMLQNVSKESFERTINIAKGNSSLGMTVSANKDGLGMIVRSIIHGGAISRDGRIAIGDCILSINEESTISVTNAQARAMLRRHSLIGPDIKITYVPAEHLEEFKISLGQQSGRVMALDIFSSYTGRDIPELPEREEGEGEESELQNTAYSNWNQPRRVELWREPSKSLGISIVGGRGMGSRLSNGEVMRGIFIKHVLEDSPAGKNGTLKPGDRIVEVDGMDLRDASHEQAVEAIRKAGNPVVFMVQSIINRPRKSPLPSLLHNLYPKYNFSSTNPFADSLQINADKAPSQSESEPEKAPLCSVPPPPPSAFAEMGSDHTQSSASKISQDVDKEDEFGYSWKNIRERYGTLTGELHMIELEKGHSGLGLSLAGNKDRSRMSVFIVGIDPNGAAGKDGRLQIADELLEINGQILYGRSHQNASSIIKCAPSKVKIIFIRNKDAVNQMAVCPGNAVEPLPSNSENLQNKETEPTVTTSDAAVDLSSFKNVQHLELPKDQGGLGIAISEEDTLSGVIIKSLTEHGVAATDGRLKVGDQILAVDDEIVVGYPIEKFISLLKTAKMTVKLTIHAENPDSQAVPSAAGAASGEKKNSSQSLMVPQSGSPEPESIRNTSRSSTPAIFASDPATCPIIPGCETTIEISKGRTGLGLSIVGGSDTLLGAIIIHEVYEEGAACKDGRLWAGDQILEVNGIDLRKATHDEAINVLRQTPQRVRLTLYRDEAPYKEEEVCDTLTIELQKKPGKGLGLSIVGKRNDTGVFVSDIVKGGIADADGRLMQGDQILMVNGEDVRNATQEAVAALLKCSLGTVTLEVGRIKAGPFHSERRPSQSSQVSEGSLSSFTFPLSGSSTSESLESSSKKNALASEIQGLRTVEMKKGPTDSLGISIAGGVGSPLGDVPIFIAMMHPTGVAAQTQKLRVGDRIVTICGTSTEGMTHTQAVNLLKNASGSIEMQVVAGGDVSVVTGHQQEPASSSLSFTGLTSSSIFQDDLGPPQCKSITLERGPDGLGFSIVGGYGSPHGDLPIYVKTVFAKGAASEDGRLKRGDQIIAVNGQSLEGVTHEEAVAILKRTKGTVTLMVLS
T2 sequence (Q12923 whole entry, the tested form may be a part): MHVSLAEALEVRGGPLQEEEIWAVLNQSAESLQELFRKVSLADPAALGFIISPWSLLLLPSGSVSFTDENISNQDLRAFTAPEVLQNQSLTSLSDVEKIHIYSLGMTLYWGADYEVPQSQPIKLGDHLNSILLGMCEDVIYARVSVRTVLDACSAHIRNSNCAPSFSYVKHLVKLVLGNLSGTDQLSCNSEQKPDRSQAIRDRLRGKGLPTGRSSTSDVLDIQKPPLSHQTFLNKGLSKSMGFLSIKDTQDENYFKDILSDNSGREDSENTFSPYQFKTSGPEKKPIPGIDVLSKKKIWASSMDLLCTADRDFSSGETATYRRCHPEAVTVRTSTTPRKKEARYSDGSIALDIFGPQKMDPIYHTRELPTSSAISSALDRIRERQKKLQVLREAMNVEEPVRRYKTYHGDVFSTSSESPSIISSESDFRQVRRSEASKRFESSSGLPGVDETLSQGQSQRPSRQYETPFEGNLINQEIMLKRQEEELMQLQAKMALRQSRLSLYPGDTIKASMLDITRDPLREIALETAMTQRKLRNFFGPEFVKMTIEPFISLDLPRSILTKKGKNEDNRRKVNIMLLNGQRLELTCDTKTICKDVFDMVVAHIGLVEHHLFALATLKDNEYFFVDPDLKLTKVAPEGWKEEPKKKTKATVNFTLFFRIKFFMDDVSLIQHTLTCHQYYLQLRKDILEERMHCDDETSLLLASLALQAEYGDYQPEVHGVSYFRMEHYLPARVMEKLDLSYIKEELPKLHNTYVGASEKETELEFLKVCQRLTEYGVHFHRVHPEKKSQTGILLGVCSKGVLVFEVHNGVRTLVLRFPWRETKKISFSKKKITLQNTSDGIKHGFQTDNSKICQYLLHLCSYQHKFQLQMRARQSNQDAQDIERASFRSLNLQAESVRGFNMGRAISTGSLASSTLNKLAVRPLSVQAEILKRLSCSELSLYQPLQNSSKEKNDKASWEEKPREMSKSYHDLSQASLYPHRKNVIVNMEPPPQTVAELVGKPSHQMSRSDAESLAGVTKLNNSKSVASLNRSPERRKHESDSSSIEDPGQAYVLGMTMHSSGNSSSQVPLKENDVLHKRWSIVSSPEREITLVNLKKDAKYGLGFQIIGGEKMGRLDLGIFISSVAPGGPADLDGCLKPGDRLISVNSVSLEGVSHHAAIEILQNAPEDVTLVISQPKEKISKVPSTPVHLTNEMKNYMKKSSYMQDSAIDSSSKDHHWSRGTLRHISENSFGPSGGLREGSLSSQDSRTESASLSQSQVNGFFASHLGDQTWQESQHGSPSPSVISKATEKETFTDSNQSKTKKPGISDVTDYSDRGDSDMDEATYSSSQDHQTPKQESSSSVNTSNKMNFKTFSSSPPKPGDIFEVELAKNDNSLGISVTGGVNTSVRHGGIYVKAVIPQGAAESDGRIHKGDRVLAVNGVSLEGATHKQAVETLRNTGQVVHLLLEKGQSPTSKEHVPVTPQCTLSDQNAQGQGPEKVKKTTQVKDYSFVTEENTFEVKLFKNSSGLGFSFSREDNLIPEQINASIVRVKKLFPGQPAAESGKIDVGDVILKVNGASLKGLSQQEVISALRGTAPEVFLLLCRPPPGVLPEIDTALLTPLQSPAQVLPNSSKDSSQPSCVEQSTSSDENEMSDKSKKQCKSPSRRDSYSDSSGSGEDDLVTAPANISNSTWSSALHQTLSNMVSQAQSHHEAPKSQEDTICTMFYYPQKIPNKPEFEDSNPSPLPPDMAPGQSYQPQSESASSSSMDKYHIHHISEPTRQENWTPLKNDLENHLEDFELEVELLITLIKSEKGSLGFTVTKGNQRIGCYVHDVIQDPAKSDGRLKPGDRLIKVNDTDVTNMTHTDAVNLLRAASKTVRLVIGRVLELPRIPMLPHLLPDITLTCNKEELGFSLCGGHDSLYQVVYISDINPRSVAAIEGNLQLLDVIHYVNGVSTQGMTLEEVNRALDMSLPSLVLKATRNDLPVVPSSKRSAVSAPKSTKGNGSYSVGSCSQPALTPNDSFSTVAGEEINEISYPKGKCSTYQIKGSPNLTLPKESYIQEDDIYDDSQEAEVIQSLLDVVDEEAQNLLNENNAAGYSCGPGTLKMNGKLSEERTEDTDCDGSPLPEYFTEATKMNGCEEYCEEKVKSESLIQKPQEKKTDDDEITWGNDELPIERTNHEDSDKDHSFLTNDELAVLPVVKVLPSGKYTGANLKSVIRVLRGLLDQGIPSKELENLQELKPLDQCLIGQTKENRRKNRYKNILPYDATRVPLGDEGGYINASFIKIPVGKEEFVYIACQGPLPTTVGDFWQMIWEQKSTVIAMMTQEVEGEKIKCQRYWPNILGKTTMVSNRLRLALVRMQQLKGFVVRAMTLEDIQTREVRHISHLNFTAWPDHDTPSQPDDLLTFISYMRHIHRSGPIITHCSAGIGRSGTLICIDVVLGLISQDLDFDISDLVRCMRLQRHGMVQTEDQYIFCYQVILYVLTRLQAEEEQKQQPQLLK

Molecule: CC(C)C[C@H](NC(=O)[C@H](C)NC(=O)[C@H](CO)NC(=O)CNC(=O)[C@@H](NC(=O)CCCC[C@@H]1SC[C@@H]2NC(=O)N[C@@H]21)[C@@H](C)O)C(=O)N[C@@H](CCC(N)=O)C(=O)N[C@@H](C)C(=O)N[C@@H](Cc1c[nH]c2ccccc12)C(=O)N[C@@H](CCCNC(=N)N)C(=O)N[C@@H](Cc1c[nH]cn1)C(=O)N[C@H](C(=O)N[C@@H](CO)C(=O)N[C@@H](CCCNC(=N)N)C(=O)N[C@@H](CCC(N)=O)C(=O)N[C@@H](C)C(=O)N[C@H](C(=O)N[C@@H](CCC(=O)O)C(=O)N[C@@H](CO)C(=O)N[C@H](C(=O)N[C@H](C(=O)O)C(C)C)[C@@H](C)O)[C@@H](C)O)[C@@H](C)O [HPV E6 #66 (modified)] (Biotin-TGSALQAWRHTSRQATESTV-OH; C-terminus assumed)
- Classification ([1]; PDZ MUPP-1, PDZ Domain 10): 1 (A450 nm 0-1)
- Classification ([1]; PDZ MUPP-1, PDZ Domain 13): 3 (A450 nm 2-3)
- Classification ([2]; PDZ PTPL-1, PDZ Domain 2): 3 (A450 nm 2-3)
- Classification ([3]; PDZ KIAA1634, PDZ Domain 1): 5 (A450 nm of 4 more than 2× repeated)
- Classification ([3]; PDZ KIAA1634, PDZ Domain 2): 1 (A450 nm 0-1)
- Classification ([4]; PDZ KIAA0807(S), PDZ Domain 1): 4 (A450 nm 3-4)
- Classification [4, 6]: 2 (A450 nm 1-2)
- Classification ([5]; PDZ BAI-1, PDZ Domain 2): 5 (A450 nm of 4 more than 2× repeated)
- Classification ([5]; PDZ BAI-1, PDZ Domain 3): 1 (A450 nm 0-1)
- Classification ([5]; PDZ BAI-1, PDZ Domain 5): 1 (A450 nm 0-1)
- Classification ([5]; PDZ FLJ 00011, PDZ Domain 1): 1 (A450 nm 0-1)

Molecule: VHDAESSDEDGYDWGPATDL (Biotin-VHDAESSDEDGYDWGPATDL) [zona occludens 3 (ZO-3)]
- Classification ([1]; PDZ MUPP-1, PDZ Domain 7): 1 (A450 nm 0-1)
- Classification ([1]; PDZ MUPP-1, PDZ Domain 9): 1 (A450 nm 0-1)
- Classification ([1]; PDZ MUPP-1, PDZ Domain 13): 2 (A450 nm 1-2)
- Classification ([2]; PDZ PTPL-1, PDZ Domain 2): 2 (A450 nm 1-2)
- Classification ([3]; PDZ KIAA1634, PDZ Domain 5): 1 (A450 nm 0-1)
- Classification ([4]; PDZ KIAA0807(S), PDZ Domain 1): 5 (A450 nm of 4 more than 2× repeated)
- Classification [4, 6]: 5 (A450 nm of 4 more than 2× repeated)
- Classification ([5]; PDZ BAI-1, PDZ Domain 6): 2 (A450 nm 1-2)
- Classification ([5]; PDZ Novel PDZ, PDZ Domain 1): 1 (A450 nm 0-1)
- Classification ([5]; PDZ SHANK, PDZ Domain 1): 1 (A450 nm 0-1)

Molecule: ISGTPTSTMVHGMTSSSSVV (Biotin-ISGTPTSTMVHGMTSSSSVV) [Clasp-2]
- Classification ([1]; PDZ MUPP-1, PDZ Domain 10): 1 (A450 nm 0-1)
- Classification ([1]; PDZ MUPP-1, PDZ Domain 13): 1 (A450 nm 0-1)
- Classification ([2]; PDZ PTPL-1, PDZ Domain 2): 1 (A450 nm 0-1)
- Classification ([3]; PDZ KIAA1634, PDZ Domain 1): 1 (A450 nm 0-1)
- Classification ([3]; PDZ KIAA1634, PDZ Domain 2): 1 (A450 nm 0-1)
- Classification [4, 6]: 1 (A450 nm 0-1)
- Classification ([5]; PDZ BAI-1, PDZ Domain 2): 1 (A450 nm 0-1)
- Classification ([5]; PDZ BAI-1, PDZ Domain 5): 1 (A450 nm 0-1)

Molecule: TQGFPGPATWRRISSLESEV
- Classification ([1]; PDZ MUPP-1, PDZ Domain 5): 1 (A450 nm 0-1)
- Classification ([1]; PDZ MUPP-1, PDZ Domain 10): 1 (A450 nm 0-1)
- Classification ([1]; PDZ MUPP-1, PDZ Domain 13): 5 (A450 nm of 4 more than 2× repeated)
- Classification ([2]; PDZ PTPL-1, PDZ Domain 2): 5 (A450 nm of 4 more than 2× repeated)
- Classification ([3]; PDZ KIAA1634, PDZ Domain 1): 5 (A450 nm of 4 more than 2× repeated)
- Classification ([3]; PDZ KIAA1634, PDZ Domain 2): 3 (A450 nm 2-3)
- Classification ([3]; PDZ KIAA1634, PDZ Domain 4): 1 (A450 nm 0-1)
- Classification ([3]; PDZ KIAA1634, PDZ Domain 5): 1 (A450 nm 0-1)
- Classification ([4]; PDZ KIAA0807(S), PDZ Domain 1): 5 (A450 nm of 4 more than 2× repeated)
- Classification [4, 6]: 4 (A450 nm 3-4)
- Classification ([5]; PDZ BAI-1, PDZ Domain 2): 4 (A450 nm 3-4)
- Classification ([5]; PDZ BAI-1, PDZ Domain 3): 1 (A450 nm 0-1)
- Classification ([5]; PDZ BAI-1, PDZ Domain 4): 3 (A450 nm 2-3)
- Classification ([5]; PDZ BAI-1, PDZ Domain 5): 4 (A450 nm 3-4)
- Classification ([5]; PDZ BAI-1, PDZ Domain 6): 2 (A450 nm 1-2)
- Classification ([5]; PDZ FLJ00011 (also printed FLJ 00011), PDZ Domain 1): 2 (A450 nm 1-2)
- Classification ([5]; PDZ FLJ 11215, PDZ Domain 1): 1 (A450 nm 0-1)

Molecule: CSCC[C@H](NC(=O)[C@H](C)NC(=O)[C@H](CCCNC(=N)N)NC(=O)CNC(=O)[C@@H](NC(=O)[C@H](Cc1c[nH]c2ccccc12)NC(=O)[C@H](CCCNC(=N)N)NC(=O)CNC(=O)CCCC[C@@H]1SC[C@@H]2NC(=O)N[C@@H]21)[C@@H](C)O)C(=O)N[C@@H](CO)C(=O)N[C@@H](C)C(=O)N[C@@H](Cc1c[nH]c2ccccc12)C(=O)N[C@@H](CCCCN)C(=O)N1CCC[C@H]1C(=O)N[C@H](C(=O)N[C@@H](CCCNC(=N)N)C(=O)N[C@@H](CCCNC(=N)N)C(=O)N[C@@H](CCC(=O)O)C(=O)N[C@H](C(=O)N[C@@H](CCC(=O)O)C(=O)N[C@H](C(=O)O)C(C)C)[C@@H](C)O)[C@@H](C)O [HPV E6 #35 (modified)] (Biotin-GRWTGRAMSAWKPTRRETEV-OH; C-terminus assumed)
- Classification ([1]; PDZ MUPP-1, PDZ Domain 5): 2 (A450 nm 1-2)
- Classification ([1]; PDZ MUPP-1, PDZ Domain 10): 4 (A450 nm 3-4)
- Classification ([1]; PDZ MUPP-1, PDZ Domain 13): 5 (A450 nm of 4 more than 2× repeated)
- Classification ([2]; PDZ PTPL-1, PDZ Domain 2): 2 (A450 nm 1-2)
- Classification ([2]; PDZ PTPL-1, PDZ Domain 4): 1 (A450 nm 0-1)
- Classification ([3]; PDZ KIAA1634, PDZ Domain 1): 5 (A450 nm of 4 more than 2× repeated)
- Classification ([3]; PDZ KIAA1634, PDZ Domain 2): 3 (A450 nm 2-3)
- Classification ([3]; PDZ KIAA1634, PDZ Domain 4): 2 (A450 nm 1-2)
- Classification ([3]; PDZ KIAA1634, PDZ Domain 5): 3 (A450 nm 2-3)
- Classification ([4]; PDZ KIAA0807(S), PDZ Domain 1, Protein Optimal Conc 0.5): 5 (A450 nm of 4 more than 2× repeated)
- Classification [4, 6]: 5 (A450 nm of 4 more than 2× repeated)
- Classification ([5]; PDZ BAI-1, PDZ Domain 2): 5 (A450 nm of 4 more than 2× repeated)
- Classification ([5]; PDZ BAI-1, PDZ Domain 3): 4 (A450 nm 3-4)
- Classification ([5]; PDZ BAI-1, PDZ Domain 4): 5 (A450 nm of 4 more than 2× repeated)
- Classification ([5]; PDZ BAI-1, PDZ Domain 5): 5 (A450 nm of 4 more than 2× repeated)
- Classification ([5]; PDZ BAI-1, PDZ Domain 6): 3 (A450 nm 2-3)
- Classification ([5]; PDZ Connector Enhancer, PDZ Domain 1): 1 (A450 nm 0-1)
- Classification ([5]; PDZ FLJ 00011, PDZ Domain 1): 3 (A450 nm 2-3)
- Classification ([5]; PDZ FLJ 11215, PDZ Domain 1): 4 (A450 nm 3-4)
- Classification ([5]; PDZ HEMBA 1003117, PDZ Domain 1): 1 (A450 nm 0-1)
